Test systems include KM20L2 colon; DMS 114 small cell lung; LXFL 529 NSCLC; RXF-631 renal; HOP-18 NSCLC; XF 498 CNS; DLD-1 colon; M19-MEL melanoma; SN12K1 renal; P388 leukemia; P388/ADR leukemia.
Holding throughout (experiment): NCI tumour cell line growth inhibition, 48 h

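These data come from cells grown in 96-well plates and exposed to compound for 48 hours at five concentrations. Here, GI50 denotes the concentration required for 50% inhibition of growth. Definition used: TGI = concentration required for complete inhibition of growth.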

For `COc1ccc2c(c1)CCCN2CCCCCCCCCCN(CCC(C)C)CCC(C)C`, the TGI was 23.1 µM in the assay on KM20L2 colon; 19.5 µM in the assay on DMS 114 small cell lung; 21.8 µM in the assay with LXFL 529 NSCLC; 27.3 µM in the assay on RXF-631 renal; 24.7 µM with HOP-18 NSCLC; 20.9 µM in the assay on XF 498 CNS. Besides, the TGI in the assay on DLD-1 colon worked out at 22.6 µM; in the assay on M19-MEL melanoma it was 30.7 µM.

With `CN(C)CCNC(=O)c1cccc2ccc(-c3ccc(F)cc3)nc12`, the TGI with KM20L2 colon was 20.4 µM; in the assay with DMS 114 small cell lung, 17.8 µM; in the assay on HOP-18 NSCLC, 54.1 µM; with XF 498 CNS, 10.2 µM; with DLD-1 colon it was 17.9 µM; in the assay on SN12K1 renal it was 12.2 µM. Moreover, the TGI in the assay on P388 leukemia was found to be 3.66 µM; with M19-MEL melanoma it was 15.9 µM; in the assay on P388/ADR leukemia, 5.17 µM.

As for `N=C1C(=N)c2ccccc2-c2ccccc21.N=C1C(=N)c2ccccc2-c2ccccc21.N=C1C(=N)c2ccccc2-c2ccccc21.[Cl-].[Ru+2]`, the GI50 in the assay on KM20L2 colon was 5.37 µM; in the assay on DMS 114 small cell lung, 1.63 µM; in the assay with LXFL 529 NSCLC, 1.61 µM; with HOP-18 NSCLC it was 3.14 µM; in the assay on M19-MEL melanoma, 1.46 µM. In addition, the TGI in the assay on KM20L2 colon stood at 13.2 µM; with DMS 114 small cell lung, 3.07 µM; in the assay on LXFL 529 NSCLC, 3.08 µM; with HOP-18 NSCLC it was 7.76 µM; with M19-MEL melanoma, 2.86 µM.

Turning to `Nc1n[nH]c(=O)c2c1c(I)cn2C1OC(CO)C(O)C1O` (centres undefined), the TGI in the assay with KM20L2 colon was > 100 µM; in the assay with DMS 114 small cell lung, 6.62 µM; with LXFL 529 NSCLC it was > 100 µM; in the assay on RXF-631 renal it was 7.36 µM; in the assay on HOP-18 NSCLC, > 100 µM; with XF 498 CNS, 8.3 µM. The TGI with DLD-1 colon was > 100 µM.

Turning to `COc1cc(/C=C/C(=O)Oc2ccc(NC(C)=O)cc2)ccc1C(=O)O/C=C/c1ccccc1`, the TGI in the assay with KM20L2 colon, with DMS 114 small cell lung, with HOP-18 NSCLC, with XF 498 CNS, with DLD-1 colon and in the assay with SN12K1 renal was > 100 µM each time. In addition, the TGI with P388 leukemia, in the assay on M19-MEL melanoma and in the assay with P388/ADR leukemia was > 100 µM each time.

Turning to `COc1ccc(/C(Cl)=C(\C=O)c2ccc(OC)cc2)cc1`, the TGI in the assay on KM20L2 colon, with DMS 114 small cell lung, with LXFL 529 NSCLC, with RXF-631 renal, in the assay with HOP-18 NSCLC and with DLD-1 colon was > 100 µM in each case. Besides, in the assay with M19-MEL melanoma, the TGI is > 100 µM.

For `O=P1(c2ccccc2)Nc2ccccc2SSc2ccccc2N1`, the TGI in the assay on KM20L2 colon was 33.7 µM; in the assay on DMS 114 small cell lung, 43 µM; in the assay with HOP-18 NSCLC it was 36.6 µM; in the assay on XF 498 CNS it was 32.7 µM; in the assay with DLD-1 colon it was 31.8 µM; in the assay on SN12K1 renal it was 30.7 µM. Besides, the TGI is > 38.6 µM in the assay with P388 leukemia, 34.4 µM in the assay with M19-MEL melanoma and 31.2 µM in the assay with P388/ADR leukemia.
